Data: patent EP0498830B1, “GLUTAMIC AND ASPARTIC ACID DERIVATIVES WITH ANTIGASTRIN ACTIVITY AND A METHOD FOR THEIR PREPARATION” (ROTTA RESEARCH LABORATORIUM S.P.A., priority 1989, dated 1991)
≈ marks a conversion by molar mass, not a printed value. Read-outs that look alike come from different tables or passages of the source. Values belong to the compound of their own block, whether it stands above or below them.

What was measured:
[1] = test system: guinea-pig gall bladders stimulated in vitro by CCK-8; assay: Anti-CCK activity on guinea-pig gall bladder contracted in vitro by CCK-8; conditions: for IC50 ACTIVITY: CCK-8 10 ng/ml, at least three tests per compound
Description: In order to check the hypothesis that the molecular conformation of the subject compounds is suitable to give them a specific antagonistic activity towards gastrin and not towards CCK, the anticontracturant activity of some of the compounds of the invention was tested on guinea-pig gall bladders stimulated in vitro by CCK-8.
A longitudinal strip of guinea-pig gall bladder was placed in a bath for isolated organs in the presence of Krebs at a temperature of 32°C, continuously oxygenated by an oxygen-CO₂ mixture (95-5 V/V).
The isometric contractions were detected by means of a force transducer and recorded.
The gall bladder was contracted with the use of a 10ng/ml concentration of CCK-8; the antagonistic activity of the compounds towards the contracturant effect of the CCK was determined with the use of different concentrations and the IC50 value, that is, the concentration in mcg/ml of the compound which is able to antagonise the contracturant effect of the CCK by 50%, thus determined.
The results obtained are set out in the table below which gives the compounds tested and the IC50s which were calculated by the regression method on a set of at least three tests for each compound investigated.

[2] = test system: guinea-pig gall bladders stimulated in vitro by CCK-8; conditions: CCK-8 10ng/ml; from U.S. Patent A-4 791 215; cited from earlier work
[3] = molecular target: T1, central gastrin receptors (Mus musculus, UniProt P56481); assay: Inhibition of binding of tritiated pentagastrin to mouse cerebral cortex membranes; parameters: Mouse cortex tissue was homogenised cold in 20 volumes of tris buffer (pH 7.7); from tissue; host or cells: mouse cerebral cortex membranes; species or system mice; conditions: for IC50: displacement of pentagastrin tritiate, 40 minutes at 37°C
T1 sequence (P56481 1-453): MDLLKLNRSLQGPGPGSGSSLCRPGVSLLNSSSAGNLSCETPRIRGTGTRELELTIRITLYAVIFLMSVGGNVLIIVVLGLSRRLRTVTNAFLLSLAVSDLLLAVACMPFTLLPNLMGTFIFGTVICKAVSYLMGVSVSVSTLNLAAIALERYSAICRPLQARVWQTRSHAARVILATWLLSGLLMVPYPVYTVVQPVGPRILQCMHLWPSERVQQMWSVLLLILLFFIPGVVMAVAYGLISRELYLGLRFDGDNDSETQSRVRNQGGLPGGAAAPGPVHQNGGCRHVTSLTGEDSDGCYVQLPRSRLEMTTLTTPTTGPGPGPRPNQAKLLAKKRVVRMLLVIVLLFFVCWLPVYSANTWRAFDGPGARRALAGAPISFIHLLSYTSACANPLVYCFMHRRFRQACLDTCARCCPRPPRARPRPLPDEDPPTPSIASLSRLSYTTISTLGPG
Description: (§1) Cerebral cortex membranes were therefore used and pentagastrin tritiate was again used as the ligand.
(§2) Mouse cortex tissue was homogenised cold in 20 volumes of tris buffer (pH 7.7). After washing and centrifuging, the final pellet was resuspended in 20 volumes of binding buffer containing, inter alia, TRIS, BSA and bacitracin. 0.4 ml of the membrane thus obtained were then incubated with a radioactive tracer and with the compounds under test for 40 minutes at 37°C.
(§3) After the supernatant liquid had been removed by centrifuging, the radioactivity associated with the pellet was determined, again with a liquid scintillator. The specific binding is the difference between the binding in the absence and in the presence of 10⁻⁶M pentagastrin.
(§4) Again, this gives the IC50s of the compounds tested with the meaning as given above.

[4] = test system: gastric acid secretion induced by pentagastrin; assay: Antisecretive activity in anaesthetised rats, stimulant pentagastrin; type: in vivo; conditions: for ED50: Rattus norvegicus, iv, pentagastrin 30 mcg/kg/h, I.V. bolus, anaesthetised rats, read-out: Antagonistic activity (ED50 mg/kg IV) towards gastric acid secretion induced by pentagastrin
Description: The antisecretive activity was determined in rats with the use of male animals weighing about 200g, anaesthetised with urethane. Gastric secretion was stimulated with pentagastrin. K.S. Lai's method (Gut 5, (1964), 327-341) was used, with slight modifications.
After tracheotomy, oesophageal and duodenal cannulae were inserted. A tepid solution (37°C) of 0.25 mM NaOH was perfused through the stomach by means of a peristaltic pump at a constant flow rate of 1 ml/minute. After stabilisation for 20 minutes, the dose of the stimulant, indicated in Table 3, dissolved in a physiological solution, was perfused for 120 minutes at a rate of 0.95 ml/hour. After 60 minutes of perfusion (basic stimulation), the products under test were administered intravenously (I.V.) in boli whilst the perfusion of the stimulant continued for a further 60 minutes. The acid secretion was recorded continuously as a function of time.
The activity of the product was evaluated as the reduction in the secreted acidity after administration of the product as a percentage of the basic acidity measured during the first 60 minutes of collection during which only pentagastrin was present.
The antagonistic compounds tested were administered in different doses so that an ID50 (that is the dose (in mg/Kg I.V.) which can inhibit the effect of the pentagastrin by 50% could be calculated.
The results thus obtained are given in the following table in which the activities of the compounds are expressed as ID50s under the stimulus of pentagastrin at 30 mcg/Kg/h.

[5] = molecular target: T2, gastrin receptor sites on the parietal cell membranes of the fundic mucosa of a guinea-pig stomach (Cavia porcellus, UniProt H0VZC5); assay: Inhibition of binding of tritiated pentagastrin to isolated guinea-pig gastric glands; parameters: from tissue; host or cells: isolated gastric glands from guinea-pig fundic mucosa (collagenase digestion)
T2 sequence (H0VZC5 1-426): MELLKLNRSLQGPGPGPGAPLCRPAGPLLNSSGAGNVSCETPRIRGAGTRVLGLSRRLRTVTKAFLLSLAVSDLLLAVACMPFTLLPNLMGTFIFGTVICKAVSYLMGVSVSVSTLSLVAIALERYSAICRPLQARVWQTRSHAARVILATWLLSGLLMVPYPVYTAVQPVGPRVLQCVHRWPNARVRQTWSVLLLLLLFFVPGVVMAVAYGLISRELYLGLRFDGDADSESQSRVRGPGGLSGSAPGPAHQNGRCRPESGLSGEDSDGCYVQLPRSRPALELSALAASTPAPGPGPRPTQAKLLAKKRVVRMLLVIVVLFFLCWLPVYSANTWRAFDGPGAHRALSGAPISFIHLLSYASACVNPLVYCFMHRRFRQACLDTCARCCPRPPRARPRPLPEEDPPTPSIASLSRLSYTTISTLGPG
Description: (§5) The capacity of some of the compounds which are the subject of the invention to inhibit the binding of pentagastrin-[beta-alanyl-3-3H(N)] to the gastrin receptor sites on the parietal cell membranes of the fundic mucosa of a guinea-pig stomach was evaluated by comparison with the displacement of pentagastrin induced by proglumide, which is a reference antigastrin compound, by lorglumide, which is a powerful CCK antagonist mentioned above, and by the compound D5 which is the optical antipode (the L-series enantiomer) of the compound D1.
(§6) Male guinea pigs weighing about 400-500g were used. After the guinea pig had been killed, its stomach was removed and placed in oxygenated SPB buffer at 37°C (SPB = saline phosphate buffer: 149.6 mM NaCl, 3 mM K₂HPO₄, 0.64 mM NaH₂PO₄, pH 7.3).
(§7) After washing in the buffer, the stomach was placed on a petri dish and the antral part discarded.
The mucosa of the remaining part was removed from the underlying muscular part and was then chopped and transferred to a flask containing a collagenase digestion solution, 0.1% BSA and 0.2% glucose. The solution was incubated at 37°C for 10 minutes under agitation and a stream of 0₂.
During the incubation period, the tissue was passed several times through a series of pipettes with decreasing diameters in order to facilitate its digestion. At the end of the period, the tissue was removed and centrifuged at 1000 rpm. The supernatant liquid resulting from the centrifuging was discarded and the pellet washed several times with a washing buffer containing EPTA to remove the collagenase.
The glands were then isolated from the undigested tissue by conventional techniques, suspended in Hepes buffer for binding and incubated together with a radioactive tracer and the compounds under test for 30 minutes at 25°C.
After the supernatant liquid had been removed by centrifuging, the radioactivity associated with the pellet was determined with a liquid scintillator. The specific binding was determined as the difference between the binding in the absence and in the presence of 10⁻⁶ M pentagastrin.
The results obtained are shown in Table 1 which gives the IC50, that is, the concentration (in moles/litre) of the antagonist which can displace 50% of the pentagastrin tritiate from the receptor.

fundic mucosa [6] = assay: Pentagastrin-induced hyperplasia of the fundic mucosa in tumour-bearing mice; type: in vivo; conditions: 20 days
Description: (§8) Male mice weighing 20-25g were inoculated subcutaneously in the interscapular region with a suspension of 8 x 10⁴ tumour cells of a mouse colic adenocarcinoma.
(§9) 5 groups each of 10 animals were used, that is : one control group of animals, one group of animals treated with 250 mcg/ml of pentagastrin twice a day and two groups of animals treated with the compound A-5 in doses of 15 and 30 mg/Kg i.p. respectively, twice a day, plus pentagastrin in the manner described above.
(§10) After 20 days, the animals were killed and the fundic mucosa and the tumours were removed, weighed and extracted in order to determine their DNA content.

[7] = test system: mouse colic adenocarcinoma; assay: Pentagastrin-induced growth of transplanted colic tumour in mice; type: in vivo; conditions: 20 days
Description: as §8, §9, §10

in vivo = conditions: mouse, iv
mice = assay: Acute toxicity LD50 IV in mice; conditions: LD50 IV mice / ID50 IV rats
fundic mucosa [8] = assay: Pentagastrin-induced hyperplasia of the fundic mucosa in tumour-bearing mice; type: in vivo; conditions: pentagastrin alone, 250 mcg/ml twice a day, 20 days
Text: (§11) Male mice weighing 20-25g were inoculated subcutaneously in the interscapular region with a suspension of 8 x 10⁴ tumour cells of a mouse colic adenocarcinoma. […] After 20 days, the animals were killed and the fundic mucosa and the tumours were removed, weighed and extracted in order to determine their DNA content.

[9] = test system: mouse colic adenocarcinoma; assay: Pentagastrin-induced growth of transplanted colic tumour in mice; type: in vivo; conditions: pentagastrin alone, 250 mcg/ml twice a day, 20 days
Text: as §11

[10] = molecular target: T1, central gastrin receptors; assay: Inhibition of binding of tritiated pentagastrin to mouse cerebral cortex membranes; parameters: Cerebral cortex membranes were therefore used and pentagastrin tritiate was again used as the ligand; from tissue; host or cells: mouse cerebral cortex membranes; species or system mice; conditions: displacement of pentagastrin tritiate; 40 minutes at 37°C
Description: as §1, §2, §3, §4

[11] = molecular target: T2, gastrin receptor sites on the parietal cell membranes of the fundic mucosa of a guinea-pig stomach; assay: Inhibition of binding of tritiated pentagastrin to isolated guinea-pig gastric glands; parameters: from tissue; host or cells: isolated guinea-pig gastric (fundic) glands; conditions: displacement of 50% of pentagastrin tritiate; 30 minutes at 25°C
Description: as §5, §6, §7
The mucosa of the remaining part was removed from the underlying muscular part and was then chopped and transferred to a flask containing a collagenase digestion solution, 0.1% BSA and 0.2% glucose. […]
After the supernatant liquid had been removed by centrifuging, the radioactivity associated with the pellet was determined with a liquid scintillator. The specific binding was determined as the difference between the binding in the absence and in the presence of 10⁻⁶ M pentagastrin. […]

[12] = displacement of 50% of pentagastrin tritiate, 30 minutes at 25°C, read-out: IC50
[13] = PEG + A-5 15 mg/Kg i.p. twice a day
[14] = PEG + A-5 30 mg/Kg i.p. twice a day

IC50 [3]: 6100 nM
times less powerful than the most active compounds ([3]; ratio of IC50s, cortical membranes): about 100 times
IC50 [5, 12]: 11000 nM
times less active than the most powerful compounds of the series ([5]; ratio of IC50s, gastric glands): about 200 times
SMILES: CCCCCN(CCCCC)C(=O)C(CCC(=O)O)NC(=O)c1ccc(Cl)c(Cl)c1 (stereo not shown) [Lorglumide, reference compound]
IC50 ACTIVITY [1]: 0.06 µg/mL (≈ 0.131 µM)
concentration inhibiting by 50% the contraction induced by CCK-8 [2]: 0.06 µg/mL
ED50 [4]: > 100 mg/kg
activity against pentagastrin-induced acid secretion ([4]; up to a dose of 100 mg/Kg): completely inactive

IC50 [3]: 96 nM
IC50 [5, 12]: 80 nM
SMILES: CC(C)(C)CCNC(=O)C(CCC(=O)O)NC(=O)c1cccc(Cl)c1 (racemic) [A5, ( ± )-4-[(3-chlorobenzoyl)-amino]-5-(3,3-dimethylbutylamino)-5-oxopentanoic acid]
FUNDIC DNA (fundic mucosa [6]; [13]): 0.28 ± 0.02 mg
WEIGHT OF THE FUNDIC MUCOSA (fundic mucosa [6]; [13]): 25.1 ± 4.7 mg
FUNDIC DNA (fundic mucosa [6]; [14]): 0.23 ± 0.05 mg
WEIGHT OF THE FUNDIC MUCOSA (fundic mucosa [6]; [14]): 19.9 ± 2.1 mg
TUMOROUS DNA [7, 13]: 3.26 ± 0.49 mg
WEIGHT OF THE COLIC TUMOUR [7, 13]: 579.0 ± 40 mg
TUMOROUS DNA [7, 14]: 2.87 ± 0.2 mg
WEIGHT OF THE COLIC TUMOUR [7, 14]: 559.5 ± 43 mg
ED50 [4]: 35 mg/kg

SMILES: CCC(C)(CC)CCNC(=O)C(CCC(=O)O)NC(=O)c1cccc(Cl)c1 (racemic) [A13]
IC50 ACTIVITY [1]: 32 µg/mL (≈ 80.6 µM)
concentration relative to that of lorglumide ([1]; times greater than lorglumide): about 500 times
IC50 [3]: 92 nM
ED50 [4]: 33 mg/kg
IC50 [5]: 91 nM

SMILES: CC(C)(C)CCNC(=O)[C@@H](CCC(=O)O)NC(=O)c1cccc(Cl)c1 [D1, D-4-(3-chlorobenzoylamino)-5-(3,3-dimethylbutylamino)-5-oxopentanoic acid]
IC50 ACTIVITY [1]: 83 µg/mL (≈ 225 µM)
LD50 (in vivo): ~600 mg/kg
times more active than the corresponding L-enantiomers (compound D5) ([3]; cortical membranes): about 10 times
IC50 [3]: 61 nM
toxic dose (LD50) relative to the antigastrin dose (ID50) (mice): about 20 times
ED50 [4]: 28 mg/kg
IC50 [5, 12]: 53 nM

SMILES: CSCC[C@H](NC(=O)[C@H](Cc1c[nH]c2ccccc12)NC(=O)CCNC(=O)OC(C)(C)C)C(=O)N[C@@H](CC(=O)O)C(=O)N[C@@H](Cc1ccccc1)C(N)=O [Pentagastrin]
FUNDIC DNA (fundic mucosa [8]): 0.44 ± 0.03 mg
WEIGHT OF THE FUNDIC MUCOSA (fundic mucosa [8]): 36.0 ± 4.2 mg
TUMOROUS DNA [9]: 4.48 ± 0.29 mg
WEIGHT OF THE COLIC TUMOUR [9]: 779.7 ± 27 mg
IC50 [10]: 0.78 nM
IC50 [11]: 0.41 nM
